Source: article PMC8766756, “Insights on Cancer Cell Inhibition, Subcellular Activities, and Kinase Profile of Phenylacetamides Pending 1H-Imidazol-5-One Variants” (Frontiers in Pharmacology, 2022)
Several values for one entry are separate records, joined by “and”; a condition that tells them apart may be missing. Equal entries are not always repeated.

Experiments:
Experiment in all cases: PamChip tyrosine kinase microarray
Format in all cases: biochemical
Conditions in all cases: 0.1 µM, HL60 lysate
[1] = biological target: T1, CSK (P41240) (Homo sapiens, UniProt P41240)
T1 construct: purchased PamGene (PamChip PTK array, Upstream Kinase Analysis)
T1 sequence (P41240 whole entry): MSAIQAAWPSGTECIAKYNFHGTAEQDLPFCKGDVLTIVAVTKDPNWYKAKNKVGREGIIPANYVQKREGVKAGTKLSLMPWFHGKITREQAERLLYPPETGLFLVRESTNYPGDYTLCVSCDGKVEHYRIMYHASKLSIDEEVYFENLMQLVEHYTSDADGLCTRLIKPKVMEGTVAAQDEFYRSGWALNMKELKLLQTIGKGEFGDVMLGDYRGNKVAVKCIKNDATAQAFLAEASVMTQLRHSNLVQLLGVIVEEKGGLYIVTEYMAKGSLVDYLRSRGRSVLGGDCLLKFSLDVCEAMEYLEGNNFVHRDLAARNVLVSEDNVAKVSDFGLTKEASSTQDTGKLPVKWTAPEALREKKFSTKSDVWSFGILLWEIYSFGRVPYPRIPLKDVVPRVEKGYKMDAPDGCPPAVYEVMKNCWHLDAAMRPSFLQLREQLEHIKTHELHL
Method in brief: (§1)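 HL60 (AML) cell lysate was spiked with compound at 0.001, 0.01, 0.1, 1, 10 and 50 µM, or 2% v/v DMSO as control, then profiled in technical replicates on a tyrosine kinase peptide array of 196 phosphosites. Kinase activity was inferred from peptide-set changes using an upstream kinase tool.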

[2] = biological target: T2, EphA4 (P54764) (Homo sapiens, UniProt P54764)
T2 construct: purchased PamGene (PamChip PTK array, Upstream Kinase Analysis)
Method in brief: as §1

[3] = biological target: T3, EphA5 (P54756) (Homo sapiens, UniProt P54756)
T3 construct: purchased PamGene (PamChip PTK array, Upstream Kinase Analysis)
T3 sequence (P54756 25-1037): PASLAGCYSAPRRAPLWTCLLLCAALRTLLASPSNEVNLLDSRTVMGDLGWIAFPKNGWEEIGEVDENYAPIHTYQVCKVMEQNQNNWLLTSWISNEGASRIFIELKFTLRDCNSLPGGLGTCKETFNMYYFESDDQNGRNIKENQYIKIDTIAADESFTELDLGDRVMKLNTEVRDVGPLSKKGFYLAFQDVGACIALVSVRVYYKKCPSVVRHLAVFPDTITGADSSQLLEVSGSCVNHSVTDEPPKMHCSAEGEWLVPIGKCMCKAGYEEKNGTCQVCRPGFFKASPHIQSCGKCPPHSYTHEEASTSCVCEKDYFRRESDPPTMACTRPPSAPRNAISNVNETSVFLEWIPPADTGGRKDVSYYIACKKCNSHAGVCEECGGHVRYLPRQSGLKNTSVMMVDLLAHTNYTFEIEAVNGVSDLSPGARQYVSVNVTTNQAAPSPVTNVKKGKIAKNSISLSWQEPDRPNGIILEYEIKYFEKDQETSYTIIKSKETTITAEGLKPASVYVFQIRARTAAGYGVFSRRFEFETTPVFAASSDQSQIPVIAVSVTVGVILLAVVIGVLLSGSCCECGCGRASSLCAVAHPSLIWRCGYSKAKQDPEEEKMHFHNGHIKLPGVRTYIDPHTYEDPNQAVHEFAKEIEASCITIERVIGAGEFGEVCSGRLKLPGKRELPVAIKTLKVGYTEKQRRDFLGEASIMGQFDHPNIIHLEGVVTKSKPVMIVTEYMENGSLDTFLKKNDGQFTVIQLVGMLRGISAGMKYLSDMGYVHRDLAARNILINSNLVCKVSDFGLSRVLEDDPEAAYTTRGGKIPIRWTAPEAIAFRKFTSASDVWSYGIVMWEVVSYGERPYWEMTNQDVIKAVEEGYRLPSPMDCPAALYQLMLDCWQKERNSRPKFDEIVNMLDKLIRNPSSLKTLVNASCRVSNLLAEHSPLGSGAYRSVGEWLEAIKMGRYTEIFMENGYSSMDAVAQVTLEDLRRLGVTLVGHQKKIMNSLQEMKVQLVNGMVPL
Method in brief: as §1

[4] = biological target: T4, FAK1 (Q05397) (Homo sapiens, UniProt Q05397)
T4 construct: purchased PamGene (PamChip PTK array, Upstream Kinase Analysis)
Method in brief: as §1

[5] = biological target: T5, FGFR2 (P21802) (Homo sapiens, UniProt P21802)
T5 construct: purchased PamGene (PamChip PTK array, Upstream Kinase Analysis)
T5 sequence (P21802 22-821): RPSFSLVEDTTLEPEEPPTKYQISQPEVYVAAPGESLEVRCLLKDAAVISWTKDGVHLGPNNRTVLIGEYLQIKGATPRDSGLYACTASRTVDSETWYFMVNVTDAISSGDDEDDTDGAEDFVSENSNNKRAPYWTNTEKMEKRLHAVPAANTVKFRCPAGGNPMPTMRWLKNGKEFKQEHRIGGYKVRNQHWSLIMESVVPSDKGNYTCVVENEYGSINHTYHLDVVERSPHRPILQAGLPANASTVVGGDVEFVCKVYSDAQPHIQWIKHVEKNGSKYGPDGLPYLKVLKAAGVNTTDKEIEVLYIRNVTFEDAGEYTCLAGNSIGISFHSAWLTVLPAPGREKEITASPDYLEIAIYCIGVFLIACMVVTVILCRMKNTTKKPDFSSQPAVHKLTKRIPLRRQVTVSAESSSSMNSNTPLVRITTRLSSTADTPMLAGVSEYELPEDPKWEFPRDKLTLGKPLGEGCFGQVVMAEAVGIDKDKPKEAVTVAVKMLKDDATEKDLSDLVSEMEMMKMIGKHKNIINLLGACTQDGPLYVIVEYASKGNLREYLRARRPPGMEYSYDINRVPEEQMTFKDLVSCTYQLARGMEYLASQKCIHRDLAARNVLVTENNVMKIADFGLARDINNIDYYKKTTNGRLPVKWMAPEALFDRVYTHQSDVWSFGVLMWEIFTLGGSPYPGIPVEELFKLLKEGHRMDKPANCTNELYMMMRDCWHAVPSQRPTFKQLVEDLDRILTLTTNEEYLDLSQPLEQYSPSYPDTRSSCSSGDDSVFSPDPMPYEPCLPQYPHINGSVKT
Method in brief: as §1

[6] = biological target: T6, FGFR3 (P22607) (Homo sapiens, UniProt P22607)
T6 construct: purchased PamGene (PamChip PTK array, Upstream Kinase Analysis)
Method in brief: as §1

[7] = biological target: T7, FLT1 (P17948) (Homo sapiens, UniProt P17948)
T7 construct: purchased PamGene (PamChip PTK array, Upstream Kinase Analysis)
T7 sequence (P17948 27-1338): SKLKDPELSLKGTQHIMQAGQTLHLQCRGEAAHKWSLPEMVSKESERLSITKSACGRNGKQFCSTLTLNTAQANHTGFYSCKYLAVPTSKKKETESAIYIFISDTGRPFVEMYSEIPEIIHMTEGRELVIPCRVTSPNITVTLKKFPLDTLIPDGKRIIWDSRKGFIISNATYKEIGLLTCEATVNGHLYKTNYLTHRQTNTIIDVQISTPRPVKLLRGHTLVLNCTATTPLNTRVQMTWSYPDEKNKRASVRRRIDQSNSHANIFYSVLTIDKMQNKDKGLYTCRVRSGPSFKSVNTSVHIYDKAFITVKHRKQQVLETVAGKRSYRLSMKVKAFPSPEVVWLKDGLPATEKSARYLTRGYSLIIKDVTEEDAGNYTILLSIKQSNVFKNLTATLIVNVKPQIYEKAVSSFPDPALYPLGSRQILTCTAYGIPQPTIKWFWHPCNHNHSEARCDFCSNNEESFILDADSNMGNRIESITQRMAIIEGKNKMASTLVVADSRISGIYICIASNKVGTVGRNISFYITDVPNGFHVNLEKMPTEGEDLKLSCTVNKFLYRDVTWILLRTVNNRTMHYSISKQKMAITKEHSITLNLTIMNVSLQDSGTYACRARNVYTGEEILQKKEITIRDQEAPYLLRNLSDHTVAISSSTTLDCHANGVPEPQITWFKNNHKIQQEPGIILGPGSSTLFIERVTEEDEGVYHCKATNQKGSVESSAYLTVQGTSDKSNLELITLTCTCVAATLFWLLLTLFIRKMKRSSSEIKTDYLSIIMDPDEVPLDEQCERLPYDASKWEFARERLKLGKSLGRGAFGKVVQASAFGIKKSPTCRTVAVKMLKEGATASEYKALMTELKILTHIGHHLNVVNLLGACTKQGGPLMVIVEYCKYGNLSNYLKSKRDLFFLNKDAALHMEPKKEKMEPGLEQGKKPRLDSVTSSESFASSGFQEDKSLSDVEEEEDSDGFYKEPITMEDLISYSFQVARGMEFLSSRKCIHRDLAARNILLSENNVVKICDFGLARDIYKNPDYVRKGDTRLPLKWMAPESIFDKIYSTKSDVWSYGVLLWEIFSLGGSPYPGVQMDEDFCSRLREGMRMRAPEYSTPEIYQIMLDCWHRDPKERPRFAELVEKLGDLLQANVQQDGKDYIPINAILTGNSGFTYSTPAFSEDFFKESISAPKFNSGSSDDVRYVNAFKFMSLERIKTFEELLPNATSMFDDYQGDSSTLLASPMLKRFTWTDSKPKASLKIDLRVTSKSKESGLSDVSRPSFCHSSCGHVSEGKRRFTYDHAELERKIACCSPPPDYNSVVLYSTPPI
Method in brief: as §1

[8] = biological target: T8, FLT4 (P35916) (Homo sapiens, UniProt P35916)
T8 construct: purchased PamGene (PamChip PTK array, Upstream Kinase Analysis)
T8 sequence (P35916 25-1363): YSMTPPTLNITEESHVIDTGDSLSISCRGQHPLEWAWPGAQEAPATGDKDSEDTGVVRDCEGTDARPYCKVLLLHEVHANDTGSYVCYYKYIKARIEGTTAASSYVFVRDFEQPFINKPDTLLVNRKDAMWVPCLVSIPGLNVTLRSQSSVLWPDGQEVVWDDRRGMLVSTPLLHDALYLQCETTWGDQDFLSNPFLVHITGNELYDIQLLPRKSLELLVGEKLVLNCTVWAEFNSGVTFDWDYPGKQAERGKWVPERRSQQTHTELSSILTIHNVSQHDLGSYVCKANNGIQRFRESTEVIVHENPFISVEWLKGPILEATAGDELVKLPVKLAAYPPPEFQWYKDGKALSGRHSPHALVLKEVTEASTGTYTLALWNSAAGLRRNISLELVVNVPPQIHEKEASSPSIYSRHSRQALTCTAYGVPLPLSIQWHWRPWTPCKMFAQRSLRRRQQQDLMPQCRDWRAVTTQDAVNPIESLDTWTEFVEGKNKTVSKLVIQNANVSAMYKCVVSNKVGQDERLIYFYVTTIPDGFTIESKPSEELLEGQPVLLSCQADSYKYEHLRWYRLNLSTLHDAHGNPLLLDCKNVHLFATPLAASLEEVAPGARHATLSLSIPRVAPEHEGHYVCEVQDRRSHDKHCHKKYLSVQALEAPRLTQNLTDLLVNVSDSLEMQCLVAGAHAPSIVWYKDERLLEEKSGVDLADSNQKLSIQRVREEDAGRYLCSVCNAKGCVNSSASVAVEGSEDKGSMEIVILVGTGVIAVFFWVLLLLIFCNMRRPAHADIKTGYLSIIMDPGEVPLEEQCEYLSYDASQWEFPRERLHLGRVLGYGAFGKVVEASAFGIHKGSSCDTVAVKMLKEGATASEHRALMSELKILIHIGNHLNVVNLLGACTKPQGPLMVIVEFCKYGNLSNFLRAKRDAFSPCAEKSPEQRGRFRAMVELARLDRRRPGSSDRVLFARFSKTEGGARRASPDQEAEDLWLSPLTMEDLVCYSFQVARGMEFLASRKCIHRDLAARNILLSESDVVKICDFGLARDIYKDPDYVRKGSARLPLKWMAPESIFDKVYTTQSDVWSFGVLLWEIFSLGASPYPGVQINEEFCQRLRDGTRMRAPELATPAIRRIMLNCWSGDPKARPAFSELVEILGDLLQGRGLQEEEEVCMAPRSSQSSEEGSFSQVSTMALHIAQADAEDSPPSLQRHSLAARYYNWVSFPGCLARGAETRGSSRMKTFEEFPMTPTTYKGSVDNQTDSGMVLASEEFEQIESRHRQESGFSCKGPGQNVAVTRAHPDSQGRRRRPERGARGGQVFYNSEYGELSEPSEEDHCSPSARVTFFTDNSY
Method in brief: as §1

[9] = biological target: T9, FRK (P42685) (Homo sapiens, UniProt P42685)
T9 construct: purchased PamGene (PamChip PTK array, Upstream Kinase Analysis)
Method in brief: as §1

[10] = biological target: T10, ITK (Q08881) (Homo sapiens, UniProt Q08881)
T10 construct: purchased PamGene (PamChip PTK array, Upstream Kinase Analysis)
T10 sequence (Q08881 1-620): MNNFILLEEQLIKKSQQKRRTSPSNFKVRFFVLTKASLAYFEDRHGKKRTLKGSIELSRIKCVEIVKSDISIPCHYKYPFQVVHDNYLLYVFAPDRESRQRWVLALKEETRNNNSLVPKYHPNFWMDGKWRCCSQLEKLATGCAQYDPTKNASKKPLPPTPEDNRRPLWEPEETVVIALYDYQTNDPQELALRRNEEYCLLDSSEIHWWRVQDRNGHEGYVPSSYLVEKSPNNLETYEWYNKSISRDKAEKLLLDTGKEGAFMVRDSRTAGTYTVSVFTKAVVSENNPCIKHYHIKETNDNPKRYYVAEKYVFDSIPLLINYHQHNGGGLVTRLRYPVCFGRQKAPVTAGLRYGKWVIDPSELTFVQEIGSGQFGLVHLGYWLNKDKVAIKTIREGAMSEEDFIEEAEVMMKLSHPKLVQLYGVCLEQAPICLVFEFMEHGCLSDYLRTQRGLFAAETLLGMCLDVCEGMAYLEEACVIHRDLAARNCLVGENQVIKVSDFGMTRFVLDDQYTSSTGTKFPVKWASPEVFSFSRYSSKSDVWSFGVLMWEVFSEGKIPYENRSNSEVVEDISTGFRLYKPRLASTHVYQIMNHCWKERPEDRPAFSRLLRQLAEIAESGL
Method in brief: as §1

[11] = biological target: T11, Ret (P07949) (Homo sapiens, UniProt P07949)
T11 construct: purchased PamGene (PamChip PTK array, Upstream Kinase Analysis)
Method in brief: as §1

[12] = biological target: T12, Syk (P43405) (Homo sapiens, UniProt P43405)
T12 construct: purchased PamGene (PamChip PTK array, Upstream Kinase Analysis)
Method in brief: as §1

COc1ccc(/C=C2\N=C(C)N(c3ccc(CC(=O)NCc4ccccc4)cc3)C2=O)cc1 [Compound 4c, (Z)-N-Benzyl-2-(4-(4-(4-methoxybenzylidene)-2-methyl-5-oxo-4,5-dihydro-1H-imidazol-1-yl)phenyl)acetamide]
Mean Significance Score [1]: 2.048 | Mean Specificity Score [1]: 1.0649 | Mean Final score (Kinase score) ([1]; listed as KIM-161): 3.09 | Mean Final score (Kinase score) [2]: 1.356 | Mean Kinase Statistic [2]: -0.7819 | Mean Significance Score [2]: 1.252 | Mean Specificity Score [2]: 0.07789 | Mean Final score (Kinase score) [3]: 2.0125 | Mean Kinase Statistic [3]: -1.181 | Mean Significance Score [3]: 1.675 | Mean Specificity Score [3]: 0.3238 | Mean Final score (Kinase score) [4]: 2.506 | Mean Kinase Statistic [4]: -1.237 | Mean Significance Score [4]: 2.048 | Mean Specificity Score [4]: 0.5313 | Mean Final score (Kinase score) [5]: 2.386 | Mean Kinase Statistic [5]: -1.189 | Mean Significance Score [5]: 2.048 | Mean Specificity Score [5]: 0.3335 | Mean Final score (Kinase score) [6]: 2.271 | Mean Kinase Statistic [6]: -1.175 | Mean Significance Score [6]: 1.984 | Mean Specificity Score [6]: 0.3218 | Mean Significance Score [7]: 2.048 | Mean Specificity Score [7]: 1.113 | Mean Final score (Kinase score) ([7]; listed as KIM-161): 3.23 and 3.228 | Mean Significance Score [8]: 2.048 | Mean Specificity Score [8]: 1.142 | Mean Final score (Kinase score) ([8]; listed as KIM-161): 3.15 and 3.152 | Mean Significance Score [9]: 2.048 | Mean Specificity Score [9]: 1.533 | Mean Final score (Kinase score) ([9]; listed as KIM-161): 3.45 and 3.453 | Mean Significance Score [10]: 2.048 | Mean Specificity Score [10]: 2.074 | Mean Final score (Kinase score) ([10]; listed as KIM-161): 3.95 and 3.951 | Mean Significance Score [11]: 2.048 | Mean Specificity Score [11]: 1.108 | Mean Final score (Kinase score) ([11]; listed as KIM-161): 3.14 and 3.143 | Mean Final score (Kinase score) [12]: 2.113 | Mean Kinase Statistic [12]: -1.091 | Mean Significance Score [12]: 2.048 | Mean Specificity Score [12]: 0.02997
